Experimental data from publication PMC6746701, “A phyB-PIF1-SPA1 kinase regulatory complex promotes photomorphogenesis in Arabidopsis” (Nature Communications, 2019).

Assays:
Type in all cases: biochemical
[1] = molecular target: T1, full-length SPA1 (Arabidopsis thaliana, UniProt Q9SYX2); assay: in vitro kinase assay, autoradiogram; conditions: GST-PIF1 as co-substrate, ATP 0.004-2.5 mM, 10 mM MgCl2, pH 7.5, 28 °C; labelled compound (gamma-32P)
T1 construct: full length, strep-tagged (3x Flag also cloned), Pichia pastoris GS115, tags kept
T1 sequence (Q9SYX2 1-1029): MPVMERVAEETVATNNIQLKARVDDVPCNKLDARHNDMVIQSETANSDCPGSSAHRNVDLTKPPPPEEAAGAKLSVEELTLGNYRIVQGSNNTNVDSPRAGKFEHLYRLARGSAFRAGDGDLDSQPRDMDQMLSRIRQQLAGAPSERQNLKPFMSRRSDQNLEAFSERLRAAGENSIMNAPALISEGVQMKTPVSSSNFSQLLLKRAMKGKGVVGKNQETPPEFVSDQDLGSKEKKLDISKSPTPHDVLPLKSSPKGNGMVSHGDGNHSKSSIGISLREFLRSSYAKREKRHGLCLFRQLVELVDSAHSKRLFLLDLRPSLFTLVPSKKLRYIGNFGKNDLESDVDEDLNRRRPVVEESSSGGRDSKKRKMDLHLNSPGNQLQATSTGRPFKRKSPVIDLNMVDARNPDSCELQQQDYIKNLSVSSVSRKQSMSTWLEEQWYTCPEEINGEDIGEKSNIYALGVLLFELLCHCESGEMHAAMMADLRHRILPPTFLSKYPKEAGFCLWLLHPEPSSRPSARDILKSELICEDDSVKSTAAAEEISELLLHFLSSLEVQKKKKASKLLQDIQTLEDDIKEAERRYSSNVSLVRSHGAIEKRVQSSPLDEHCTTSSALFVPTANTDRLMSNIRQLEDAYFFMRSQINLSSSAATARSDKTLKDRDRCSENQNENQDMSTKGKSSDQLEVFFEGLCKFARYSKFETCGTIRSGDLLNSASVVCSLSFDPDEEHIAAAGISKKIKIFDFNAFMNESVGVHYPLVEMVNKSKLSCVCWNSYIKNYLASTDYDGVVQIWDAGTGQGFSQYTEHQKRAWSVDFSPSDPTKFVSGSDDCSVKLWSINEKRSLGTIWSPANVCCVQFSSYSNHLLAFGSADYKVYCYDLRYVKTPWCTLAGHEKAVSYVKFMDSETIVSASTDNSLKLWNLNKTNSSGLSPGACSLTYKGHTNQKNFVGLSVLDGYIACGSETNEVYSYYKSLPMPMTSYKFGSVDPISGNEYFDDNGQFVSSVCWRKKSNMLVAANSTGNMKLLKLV

[2] = molecular target: T2, SPA1-Kin (Arabidopsis thaliana, UniProt Q9SYX2, R517E, form not given); assay: in vitro autophosphorylation assay, autoradiogram; conditions: 10 mM MgCl2, pH 7.5, 28 °C; labelled compound (gamma-32P)
T2 sequence (Q9SYX2 1-545 R517E limits assumed): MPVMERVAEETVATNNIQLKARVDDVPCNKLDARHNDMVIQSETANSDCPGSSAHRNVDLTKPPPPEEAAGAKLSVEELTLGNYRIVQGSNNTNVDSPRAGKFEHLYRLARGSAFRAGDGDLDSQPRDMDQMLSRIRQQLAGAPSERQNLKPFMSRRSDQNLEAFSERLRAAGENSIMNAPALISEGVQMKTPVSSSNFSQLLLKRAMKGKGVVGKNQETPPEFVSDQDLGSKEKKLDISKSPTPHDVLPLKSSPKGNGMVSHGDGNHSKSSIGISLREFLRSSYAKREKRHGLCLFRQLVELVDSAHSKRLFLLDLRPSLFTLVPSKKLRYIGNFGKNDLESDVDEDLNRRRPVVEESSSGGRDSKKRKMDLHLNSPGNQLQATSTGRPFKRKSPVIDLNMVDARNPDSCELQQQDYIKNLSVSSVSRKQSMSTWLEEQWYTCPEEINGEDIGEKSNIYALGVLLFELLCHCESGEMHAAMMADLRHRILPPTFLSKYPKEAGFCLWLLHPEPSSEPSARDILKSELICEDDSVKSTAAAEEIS

[3] = molecular target: T3, phyA (Arabidopsis thaliana, UniProt P14712); assay: in vitro kinase assay, autoradiogram; conditions: PIF1 as co-substrate, 10 mM MgCl2, pH 7.5, 28 °C; labelled compound (gamma-32P)
T3 construct: holoprotein purified from Saccharomyces cerevisiae
T3 sequence (P14712 1-1122): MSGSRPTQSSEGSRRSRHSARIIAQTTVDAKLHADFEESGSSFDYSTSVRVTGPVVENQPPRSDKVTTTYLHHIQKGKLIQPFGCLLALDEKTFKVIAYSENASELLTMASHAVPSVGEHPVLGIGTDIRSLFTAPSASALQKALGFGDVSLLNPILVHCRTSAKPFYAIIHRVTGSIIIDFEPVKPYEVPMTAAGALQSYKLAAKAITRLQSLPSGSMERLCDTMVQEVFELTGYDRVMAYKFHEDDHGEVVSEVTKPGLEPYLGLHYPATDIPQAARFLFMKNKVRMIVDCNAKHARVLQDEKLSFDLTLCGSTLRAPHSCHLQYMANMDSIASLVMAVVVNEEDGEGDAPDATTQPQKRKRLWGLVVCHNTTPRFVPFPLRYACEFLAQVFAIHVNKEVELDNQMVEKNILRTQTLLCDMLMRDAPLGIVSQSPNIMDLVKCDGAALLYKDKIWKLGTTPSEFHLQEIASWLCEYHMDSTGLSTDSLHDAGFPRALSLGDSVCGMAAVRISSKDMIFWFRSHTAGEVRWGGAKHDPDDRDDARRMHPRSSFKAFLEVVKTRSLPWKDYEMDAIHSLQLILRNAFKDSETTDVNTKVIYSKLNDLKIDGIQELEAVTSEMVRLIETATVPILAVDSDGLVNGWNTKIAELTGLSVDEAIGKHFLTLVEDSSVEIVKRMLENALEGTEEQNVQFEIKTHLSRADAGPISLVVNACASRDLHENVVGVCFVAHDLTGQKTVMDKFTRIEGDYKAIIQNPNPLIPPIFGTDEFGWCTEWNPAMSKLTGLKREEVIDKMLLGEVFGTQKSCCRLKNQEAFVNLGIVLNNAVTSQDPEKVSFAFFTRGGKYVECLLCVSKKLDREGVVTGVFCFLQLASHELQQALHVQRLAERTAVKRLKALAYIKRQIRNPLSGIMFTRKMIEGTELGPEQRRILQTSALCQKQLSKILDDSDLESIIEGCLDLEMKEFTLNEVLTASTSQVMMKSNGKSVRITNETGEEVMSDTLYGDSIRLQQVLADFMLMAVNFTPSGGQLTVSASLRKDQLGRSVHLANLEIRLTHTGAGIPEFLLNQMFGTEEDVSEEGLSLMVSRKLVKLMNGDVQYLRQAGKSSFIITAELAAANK

Nc1ncnc2c1ncn2[C@@H]1O[C@H](COP(=O)(O)OP(=O)(O)OP(=O)(O)O)[C@@H](O)[C@H]1O [ATP]
in vitro kinase assay, autoradiogram [1]: SPA1 also phosphorylated PIF1 in an ATP concentration- and time-dependent manner | in vitro autophosphorylation assay, autoradiogram [2]: significantly reduced auto-phosphorylation activity for the SPA1-Kin^R517E (mSPA1) mutant | in vitro kinase assay, autoradiogram [3]: In this assay, both phyA and phyB phosphorylated PIF1 in vitro
